Experimental data published in paper PMC8725837, “2-Arylquinolines as novel anticancer agents with dual EGFR/FAK kinase inhibitory activity: synthesis, biological evaluation, and molecular modelling insights” (Journal of Enzyme Inhibition and Medicinal Chemistry, 2021).

Tests used:
recombinant human TOP1 = target: T1, recombinant human TOP1 (Homo sapiens, UniProt P11387); assay: Topoisomerase I-mediated DNA cleavage assay; conditions: tested at 0.1, 1, 10, 100 µM
T1 sequence (P11387 1-765): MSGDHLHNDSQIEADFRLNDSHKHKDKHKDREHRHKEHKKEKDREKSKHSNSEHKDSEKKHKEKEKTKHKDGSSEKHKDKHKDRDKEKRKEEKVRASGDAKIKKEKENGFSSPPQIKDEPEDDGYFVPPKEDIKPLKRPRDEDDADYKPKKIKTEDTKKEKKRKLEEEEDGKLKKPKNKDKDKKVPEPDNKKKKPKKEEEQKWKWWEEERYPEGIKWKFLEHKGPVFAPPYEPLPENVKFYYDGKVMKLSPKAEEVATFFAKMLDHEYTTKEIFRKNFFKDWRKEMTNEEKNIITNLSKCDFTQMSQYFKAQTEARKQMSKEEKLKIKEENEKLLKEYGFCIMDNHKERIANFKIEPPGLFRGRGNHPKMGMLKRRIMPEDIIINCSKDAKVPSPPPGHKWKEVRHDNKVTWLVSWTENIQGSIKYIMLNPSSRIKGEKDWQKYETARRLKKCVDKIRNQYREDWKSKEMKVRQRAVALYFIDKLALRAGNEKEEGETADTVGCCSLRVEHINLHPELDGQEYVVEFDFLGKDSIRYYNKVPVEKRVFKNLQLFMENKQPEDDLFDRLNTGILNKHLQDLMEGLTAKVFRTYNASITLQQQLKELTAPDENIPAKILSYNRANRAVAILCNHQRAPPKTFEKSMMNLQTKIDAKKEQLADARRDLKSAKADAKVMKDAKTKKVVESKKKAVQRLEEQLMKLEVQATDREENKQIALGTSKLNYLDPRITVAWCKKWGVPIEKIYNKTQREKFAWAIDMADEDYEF
Experimental: Radiolabeled DNA was incubated with recombinant human TOP1 in 20 µL reaction buffer (10 mmol/L Tris-HCl, pH 7.5, 50 mmol/L KCl, 5 mmol/L MgCl2, 0.1 mmol/L EDTA, and 15 µg/mL BSA) at 30 °C for 20 min in the presence of the indicated drug concentrations. Reactions were terminated by adding SDS (0.5% final concentration) followed by the addition of two volumes of loading dye (80% formamide, 10 mmol/L sodium hydroxide, 1 mmol/L sodium EDTA, 0.1% xylene cyanol, and 0.1% bromophenol blue). Aliquots of reaction mixtures were subjected to 20% denaturing PAGE. Gels were dried and visualised by using PhosphorImager and Image Quant software (Molecular Dynamics).

[1] = system: DLD-1 colorectal cancer cell line; assay: MTT antiproliferative assay, DLD-1; conditions: for GI% DLD1: 10 µM, 24 h, MTT; for IC50: Homo sapiens, DLD-1, 24 h, read-out: IC50 DLD1 (half maximal growth inhibitory concentration); for fold superior activity compared to Gefitinib, DLD-1: from IC50 values
Experimental: (§2) After the incubation of the tested compounds for 24 h, the percent growth inhibition (GI%) was calculated.
(§3) Cells were seeded at 1 × 10^4 cells/well and cultured overnight in a 96-well plate. […] Then, 150 µl DMSO was used to solubilise MTT formazan crystals. Finally, the plates were shaken, and the optical density was determined at 570 nm using ELISA plate reader. At least, three independent experiments were performed. Percentage of growth inhibition was determined as (1-[OD of treated cells/OD of control cells]). […] The IC50 values were calculated using Prism v0.8 software (GraphPad Software Inc., La Jolla, CA).

c-Src = target: T2, c-Src (Homo sapiens, UniProt P12931); assay: Z`-LYTE kinase profiling, c-Src; assay type: biochemical
T2 construct: purchased Invitrogen/Life Technologies
T2 sequence (P12931 whole entry): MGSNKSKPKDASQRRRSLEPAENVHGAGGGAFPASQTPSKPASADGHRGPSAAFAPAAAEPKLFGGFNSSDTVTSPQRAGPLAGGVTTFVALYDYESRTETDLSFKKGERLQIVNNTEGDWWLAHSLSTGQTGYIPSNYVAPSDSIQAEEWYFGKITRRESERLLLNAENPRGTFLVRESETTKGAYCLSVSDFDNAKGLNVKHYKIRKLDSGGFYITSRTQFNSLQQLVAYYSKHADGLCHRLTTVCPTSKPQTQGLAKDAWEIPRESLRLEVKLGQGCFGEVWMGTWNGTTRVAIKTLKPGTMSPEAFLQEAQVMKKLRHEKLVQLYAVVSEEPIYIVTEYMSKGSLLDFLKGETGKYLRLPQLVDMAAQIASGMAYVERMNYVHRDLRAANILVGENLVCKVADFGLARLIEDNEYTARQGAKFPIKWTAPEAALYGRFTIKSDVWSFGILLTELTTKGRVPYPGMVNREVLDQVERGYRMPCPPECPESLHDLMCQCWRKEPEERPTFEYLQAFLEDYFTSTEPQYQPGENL

[2] = system: MDMBA-231 breast cancer cell line; assay: MTT antiproliferative assay, MDMBA-231; assay type: cell-based; conditions: 10 µM, 24 h
Experimental: (§1) At least, three independent experiments were performed.

[3] = system: MCF-7 breast cancer cell line; assay: MTT antiproliferative assay, MCF-7; assay type: cell-based; conditions: 10 µM, 24 h
Experimental: as §1

VEGFR-2 = target: T3, VEGFR-2 (Homo sapiens, UniProt P35968); assay: Z`-LYTE kinase profiling, VEGFR-2; assay type: biochemical
T3 construct: purchased Invitrogen/Life Technologies

HER-2 = target: T4, HER-2 (Homo sapiens, UniProt P04626); assay: Z`-LYTE kinase profiling, HER-2; assay type: biochemical
T4 construct: purchased Invitrogen/Life Technologies
T4 sequence (P04626 23-1255): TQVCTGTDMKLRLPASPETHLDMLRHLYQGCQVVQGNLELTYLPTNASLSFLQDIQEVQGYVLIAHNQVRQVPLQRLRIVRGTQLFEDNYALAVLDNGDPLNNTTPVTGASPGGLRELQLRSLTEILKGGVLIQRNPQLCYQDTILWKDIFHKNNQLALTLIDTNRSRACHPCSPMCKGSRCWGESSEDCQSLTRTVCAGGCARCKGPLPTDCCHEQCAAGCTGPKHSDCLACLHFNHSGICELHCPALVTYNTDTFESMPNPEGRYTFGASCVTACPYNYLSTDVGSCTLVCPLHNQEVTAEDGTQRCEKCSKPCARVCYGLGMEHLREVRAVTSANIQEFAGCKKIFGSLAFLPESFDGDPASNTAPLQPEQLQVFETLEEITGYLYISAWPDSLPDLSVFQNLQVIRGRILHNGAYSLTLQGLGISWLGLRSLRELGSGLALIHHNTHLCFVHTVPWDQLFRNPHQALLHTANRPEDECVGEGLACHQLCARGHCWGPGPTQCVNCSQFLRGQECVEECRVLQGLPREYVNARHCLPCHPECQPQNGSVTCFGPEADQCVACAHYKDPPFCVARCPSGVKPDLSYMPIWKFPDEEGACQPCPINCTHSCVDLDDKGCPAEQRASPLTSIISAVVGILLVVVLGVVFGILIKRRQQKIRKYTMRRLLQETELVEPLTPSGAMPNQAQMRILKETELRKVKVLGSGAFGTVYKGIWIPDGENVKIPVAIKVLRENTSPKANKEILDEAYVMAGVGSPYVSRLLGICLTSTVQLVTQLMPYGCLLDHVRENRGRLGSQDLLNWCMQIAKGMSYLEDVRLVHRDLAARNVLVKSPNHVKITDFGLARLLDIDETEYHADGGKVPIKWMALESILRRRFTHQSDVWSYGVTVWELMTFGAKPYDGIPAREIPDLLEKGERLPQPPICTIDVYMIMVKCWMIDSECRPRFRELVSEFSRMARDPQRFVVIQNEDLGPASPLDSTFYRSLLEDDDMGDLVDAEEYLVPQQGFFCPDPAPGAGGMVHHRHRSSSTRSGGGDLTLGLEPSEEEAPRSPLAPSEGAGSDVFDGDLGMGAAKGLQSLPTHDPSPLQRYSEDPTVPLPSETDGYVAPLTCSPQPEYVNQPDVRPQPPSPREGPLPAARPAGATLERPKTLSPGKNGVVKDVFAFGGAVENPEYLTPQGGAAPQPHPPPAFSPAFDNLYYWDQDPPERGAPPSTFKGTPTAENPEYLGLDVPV

[4] = system: DLD-1 colorectal cancer cell line; assay: Annexin V-FITC/propidium iodide apoptosis assay (AV/PI); assay type: cell-based; conditions: 3 µM, 24 h; control 7%
Experimental: Also, compounds 6f, 6i, 16d, and 20f exerted potential apoptotic effect elevating the total percentage of apoptotic cells to 84.33, 71.66, 51.66, and 80.66%, respectively.
Flow cytometric analysis was conducted using FACS Calibur flow cytometer (BD Biosciences, San Jose, CA, USA).

FAK = FAK (Homo sapiens, UniProt Q05397); assay: Z`-LYTE kinase inhibitory assay, FAK
[5] = system: HCT-116 colorectal cancer cell line; assay: MTT antiproliferative assay, HCT-116; conditions: for GI% HCT-116: 10 µM, 24 h, MTT; for IC50: Homo sapiens, HCT-116, 24 h, read-out: IC50 HCT-116 (half maximal growth inhibitory concentration)
Experimental: as §2, §3

[6] = system: HeLa cervical cancer cell line; assay: MTT antiproliferative assay, HeLa; assay type: cell-based; conditions: 10 µM, 24 h
Experimental: as §1

BTK = target: T5, BTK (Homo sapiens, UniProt Q06187); assay: Z`-LYTE kinase profiling, BTK; assay type: biochemical
T5 construct: purchased Invitrogen/Life Technologies
T5 sequence (Q06187 whole entry): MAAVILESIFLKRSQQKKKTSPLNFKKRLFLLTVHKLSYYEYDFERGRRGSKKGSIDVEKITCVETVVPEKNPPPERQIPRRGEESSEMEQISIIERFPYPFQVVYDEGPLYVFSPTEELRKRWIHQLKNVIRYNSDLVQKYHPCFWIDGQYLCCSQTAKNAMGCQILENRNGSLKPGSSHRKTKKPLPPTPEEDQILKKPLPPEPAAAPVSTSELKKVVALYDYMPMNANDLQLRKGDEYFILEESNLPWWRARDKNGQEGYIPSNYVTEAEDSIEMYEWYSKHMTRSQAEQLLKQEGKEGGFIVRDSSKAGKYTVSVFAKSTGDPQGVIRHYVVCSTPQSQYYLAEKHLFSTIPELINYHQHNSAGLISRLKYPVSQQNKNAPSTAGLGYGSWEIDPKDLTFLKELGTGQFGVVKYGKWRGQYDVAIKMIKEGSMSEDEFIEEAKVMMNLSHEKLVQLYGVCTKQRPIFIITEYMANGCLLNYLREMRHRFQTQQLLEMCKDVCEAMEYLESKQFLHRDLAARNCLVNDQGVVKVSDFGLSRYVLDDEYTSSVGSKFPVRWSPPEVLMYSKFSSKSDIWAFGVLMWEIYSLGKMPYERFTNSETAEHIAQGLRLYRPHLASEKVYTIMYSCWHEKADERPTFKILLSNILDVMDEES

VEGFR-1 = target: T6, VEGFR-1 (Homo sapiens, UniProt P17948); assay: Z`-LYTE kinase profiling, VEGFR-1; assay type: biochemical
T6 construct: purchased Invitrogen/Life Technologies

IGF-1R = target: T7, IGF-1R (Homo sapiens, UniProt P08069); assay: Z`-LYTE kinase profiling, IGF-1R; assay type: biochemical
T7 construct: purchased Invitrogen/Life Technologies

FRK = target: T8, FRK (Homo sapiens, UniProt P42685); assay: Z`-LYTE kinase profiling, FRK; assay type: biochemical
T8 construct: purchased Invitrogen/Life Technologies
T8 sequence (P42685 whole entry): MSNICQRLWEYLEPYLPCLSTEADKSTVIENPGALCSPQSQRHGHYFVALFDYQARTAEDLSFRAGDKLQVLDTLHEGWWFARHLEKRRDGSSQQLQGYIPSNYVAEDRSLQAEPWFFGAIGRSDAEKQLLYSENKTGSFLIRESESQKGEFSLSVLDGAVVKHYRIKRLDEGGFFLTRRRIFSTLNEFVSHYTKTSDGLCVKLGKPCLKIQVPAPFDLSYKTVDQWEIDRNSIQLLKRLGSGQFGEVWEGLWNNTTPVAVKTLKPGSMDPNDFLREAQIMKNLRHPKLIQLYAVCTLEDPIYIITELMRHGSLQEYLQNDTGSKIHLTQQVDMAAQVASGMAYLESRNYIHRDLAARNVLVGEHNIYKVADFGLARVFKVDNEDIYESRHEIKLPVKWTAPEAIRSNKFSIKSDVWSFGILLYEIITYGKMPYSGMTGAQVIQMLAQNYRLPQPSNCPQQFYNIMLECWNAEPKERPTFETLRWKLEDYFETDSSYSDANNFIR

EGFR = EGFR (Homo sapiens, UniProt P00533); assay: Z`-LYTE kinase inhibitory assay, EGFR
EGFR, sequence (P00533 25-1210): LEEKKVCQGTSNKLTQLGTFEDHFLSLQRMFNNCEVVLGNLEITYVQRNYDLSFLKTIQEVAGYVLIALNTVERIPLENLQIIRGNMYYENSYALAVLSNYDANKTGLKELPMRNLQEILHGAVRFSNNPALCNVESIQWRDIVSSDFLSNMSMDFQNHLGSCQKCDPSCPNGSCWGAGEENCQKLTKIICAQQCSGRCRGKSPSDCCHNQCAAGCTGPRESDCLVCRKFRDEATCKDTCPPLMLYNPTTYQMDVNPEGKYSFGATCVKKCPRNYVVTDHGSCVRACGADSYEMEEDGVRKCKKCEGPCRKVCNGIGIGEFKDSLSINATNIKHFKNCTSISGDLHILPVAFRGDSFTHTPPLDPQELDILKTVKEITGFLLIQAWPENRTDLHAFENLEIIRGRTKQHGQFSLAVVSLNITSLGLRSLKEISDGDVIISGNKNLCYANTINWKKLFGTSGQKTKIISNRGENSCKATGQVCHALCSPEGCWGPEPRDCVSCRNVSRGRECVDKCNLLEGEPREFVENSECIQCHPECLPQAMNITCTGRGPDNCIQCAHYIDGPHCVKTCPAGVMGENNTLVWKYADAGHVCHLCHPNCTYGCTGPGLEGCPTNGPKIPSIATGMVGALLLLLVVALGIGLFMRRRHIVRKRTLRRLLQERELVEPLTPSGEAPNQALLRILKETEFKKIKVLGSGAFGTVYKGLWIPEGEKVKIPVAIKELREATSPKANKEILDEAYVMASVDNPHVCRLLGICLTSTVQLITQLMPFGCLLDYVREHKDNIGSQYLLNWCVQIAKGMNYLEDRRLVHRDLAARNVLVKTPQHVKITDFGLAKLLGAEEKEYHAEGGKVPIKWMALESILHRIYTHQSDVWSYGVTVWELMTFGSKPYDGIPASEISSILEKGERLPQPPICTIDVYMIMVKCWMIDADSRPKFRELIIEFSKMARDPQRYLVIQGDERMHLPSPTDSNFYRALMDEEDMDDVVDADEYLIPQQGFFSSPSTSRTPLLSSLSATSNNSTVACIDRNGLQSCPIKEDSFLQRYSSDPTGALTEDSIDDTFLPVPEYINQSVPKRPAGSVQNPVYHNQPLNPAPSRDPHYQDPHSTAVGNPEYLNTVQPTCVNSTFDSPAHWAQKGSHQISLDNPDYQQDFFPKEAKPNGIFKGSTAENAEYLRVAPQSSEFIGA

Row | Structure (SMILES) | TOP1 inhibitory activity (semiquantitative score relative to 1 µM CPT) (recombinant human TOP1) | GI% DLD1 [1] | IC50 [1] | fold superior activity compared to Gefitinib, DLD-1 [1] | IC50 (c-Src) | GI% MDMBA-231 [2] | GI% MCF-7 [3] | IC50 (VEGFR-2) | IC50 (HER-2) | total percentage of AV positive apoptotic DLD-1 cells [4] | IC50 (FAK) | GI% HCT-116 [5] | IC50 [5] | GI% Hela [6] | IC50 (BTK) | IC50 (VEGFR-1) | IC50 (IGF-1R) | IC50 (FRK) | IC50 (EGFR) | melting point
1 | COc1cc2nc(-c3ccc(C(F)(F)F)cc3)cc(OCCCN3CCN(C)CC3)c2cc1OC [6f, 6,7-dimethoxy-4–(3-(4-methylpiperazin-1-yl)propoxy)-2–(4-(trifluoromethyl)phenyl)quin-oline] | 0 | 95.36% | 2.25 ± 0.96 µM | 4 fold | 3.94 µM | 75.34% | 94.36% | 1.94 µM | 0.639 µM | 84.33% | 0.0227 ± 0.00238 µM | 88.46% | 3.09 ± 1.05 µM | 69.17% | 8.79 µM | 1.73 µM | 5.35 µM | 5.05 µM | 0.0254 ± 0.00349 µM | –
2 | COc1cc2nc(-c3ccc(C(F)(F)F)cc3)cc(OCCCNC3CCN(C)CC3)c2cc1OC [6h, N-(3-((6,7-dimethoxy-2–(4-(trifluoromethyl)phenyl)quinolin-4-yl)oxy)propyl)-1-methyl p-iperidin-4-amine] | −/+ (−/+: 0–25% 1 µM CPT) | 92.36% | 1.79 ± 0.21 µM | 5 fold | 3.58 µM | 84.76% | 90.36% | 2.45 µM | 1.58 µM | 90.33% | 0.0142 ± 0.00272 µM | 89.34% | 3.28 ± 0.67 µM | 90.78% | 3.48 µM | 0.464 µM | 0.197 µM | 0.33 µM | 0.0202 ± 0.00107 µM | –
3 | Fc1ccc(-c2cc(OCCCN3CCOCC3)c3cc(Br)ccc3n2)cc1 [16d, 4-(3-((6-bromo-2-(4-fluorophenyl)quinolin-4-yl)oxy)propyl)morpholine] | 0 | 90.11% | 2.18 ± 0.52 µM | 4 fold | 3.9 µM | 80.24% | 86.38% | 4.69 µM | 0.358 µM | 51.66% | 0.0174 ± 0.00215 µM | 97.48% | 2.43 ± 0.71 µM | 85.67% | 2.1 µM | 1.77 µM | 2.23 µM | 1.73 µM | 0.035 ± 0.00264 µM | 132 to 134 °C
4 | COc1cc2nc(-c3ccc(C(F)(F)F)cc3)cc(OCCCNCC3CCCO3)c2cc1OC (centres unmarked) [6i, 3-((6,7-dimethoxy-2–(4-(trifluoromethyl)phenyl)quinolin-4-yl)oxy)-N-((tetrahydrofuran-2-yl)methyl)propan-1-amine] | 0 | 88.76% | 2.48 ± 0.86 µM | 4 fold | 7.01 µM | 81.60% | 89.49% | 8.24 µM | 1.38 µM | 71.66% | 0.0184 ± 0.00317 µM | 82.11% | 5.68 ± 1.42 µM | 78.64% | 7.29 µM | 0.801 µM | 1.71 µM | 1.21 µM | 0.0224 ± 0.00205 µM | –
